Where “and” joins values, the source holds several entries; their conditions need not be identical. Equal values may be shown once.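 Following 48 hours of exposure in 96-well plates, responses at five concentrations were used to interpolate endpoints linearly. At the GI50, growth is halved. The concentration for full growth arrest is given as TGI.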

Test systems include OVCAR-4 ovarian; A549 NSCLC; HCT-15 colon; KM12 colon; NCI-H226 lung; SN12C renal; SW-620 colon; OVCAR-3 ovarian; SF-268 CNS; A498 renal.
Common to all, as to assay: growth of human tumour cells (NCI), 48 h

`COc1ccc(NC(=O)/C(Cc2cc(=O)oc3cc(O)ccc23)=N\NC(C)(C)C)c(OC)c1`: the TGI in the assay on OVCAR-4 ovarian, in the assay with A549 NSCLC, in the assay on HCT-15 colon, in the assay with KM12 colon, in the assay on NCI-H226 lung and in the assay with SN12C renal was above 100 µM in each case. Also, the TGI with SW-620 colon, in the assay with OVCAR-3 ovarian, in the assay with SF-268 CNS and in the assay on A498 renal was above 100 µM throughout.
`CCOc1ccc(NC(=O)C(=O)CC(=O)c2c(C)n([O-])c3ccccc3[n+]2=O)cc1`: the TGI in the assay with OVCAR-4 ovarian, with A549 NSCLC, with HCT-15 colon, in the assay on KM12 colon, with NCI-H226 lung and in the assay on SN12C renal was above 100 µM throughout. Moreover, the TGI in the assay on SW-620 colon, in the assay with OVCAR-3 ovarian, in the assay with SF-268 CNS and with A498 renal was above 100 µM in each case.
Turning to `COc1cc(NCc2ccc3nc(N)nc(N)c3c2C)cc(OC)c1OC` (tested in a mixture with another compound), the GI50 was 0.15 µM in the assay on OVCAR-4 ovarian; 0.000138 µM in the assay on A549 NSCLC; 0.000451 µM in the assay on HCT-15 colon; 0.0892 µM in the assay with NCI-H226 lung; 0.000457 µM in the assay on SN12C renal; 0.000285 µM with SW-620 colon. In addition, the TGI is 99.8 µM in the assay on OVCAR-4 ovarian; 21.9 µM in the assay with A549 NSCLC; 51.7 µM in the assay on HCT-15 colon; 46.6 µM in the assay on KM12 colon; 52.8 µM in the assay on NCI-H226 lung; 16.4 µM and 50.9 µM in the assay with SW-620 colon. In addition, the TGI was found to be 77.8 µM with OVCAR-3 ovarian, 66.8 µM in the assay on SF-268 CNS and 49.5 µM in the assay on A498 renal.
For `O=C(/C=C/c1cccc2ccccc12)c1ccccc1Cl`, the TGI in the assay on OVCAR-4 ovarian is 28.5 µM; in the assay with A549 NSCLC, 55.7 µM; with HCT-15 colon it was 24.3 µM; in the assay on KM12 colon it was 21.3 µM; in the assay on NCI-H226 lung, above 100 µM; in the assay with SN12C renal, above 100 µM. Moreover, the TGI with SW-620 colon turned out to be 17.6 µM; with OVCAR-3 ovarian it was 25.6 µM; in the assay on SF-268 CNS it was 36.5 µM; in the assay on A498 renal it was 29.5 µM.
As for `CO/N=C(\COc1ccc2c(c1)oc(=O)c1cc(OC)ccc12)c1ccc(OC)cc1`, the GI50 in the assay with OVCAR-4 ovarian was 20.5 µM; in the assay on A549 NSCLC, above 100 µM; with HCT-15 colon, above 100 µM; in the assay with KM12 colon, above 100 µM; with NCI-H226 lung it was above 100 µM; in the assay with SN12C renal it was above 100 µM. The GI50 in the assay with SW-620 colon, in the assay on OVCAR-3 ovarian, in the assay with SF-268 CNS and in the assay on A498 renal was above 100 µM in each case. Also, the TGI in the assay with OVCAR-4 ovarian, in the assay with A549 NSCLC, in the assay on HCT-15 colon, with KM12 colon, with NCI-H226 lung and in the assay on SN12C renal was above 100 µM each time. For the same molecule, the TGI in the assay with SW-620 colon, in the assay with OVCAR-3 ovarian, with SF-268 CNS and in the assay with A498 renal was above 100 µM each time.
For the molecule `COc1ccc(/C=C2/N=C(c3ccccc3)N(c3c(C)n(C)n(-c4ccccc4)c3=O)C2=O)cc1OC`, the GI50 in the assay with OVCAR-4 ovarian, in the assay on A549 NSCLC, with HCT-15 colon, in the assay on KM12 colon, in the assay with NCI-H226 lung and with SN12C renal was above 100 µM throughout. The GI50 with SW-620 colon, with OVCAR-3 ovarian, in the assay with SF-268 CNS and in the assay with A498 renal was above 100 µM each time. Moreover, the TGI in the assay on OVCAR-4 ovarian, in the assay with A549 NSCLC, with HCT-15 colon, in the assay with KM12 colon, in the assay with NCI-H226 lung and in the assay on SN12C renal was above 100 µM in each case. Further, the TGI in the assay with SW-620 colon, in the assay with OVCAR-3 ovarian, with SF-268 CNS and with A498 renal was above 100 µM in each case.
With `O=C(O)Cc1cc(Cl)ccc1O`, the TGI in the assay on OVCAR-4 ovarian, in the assay on A549 NSCLC, in the assay with HCT-15 colon, with KM12 colon, in the assay with NCI-H226 lung and in the assay with SN12C renal was above 100 µM in each case. Also, the TGI in the assay on SW-620 colon, in the assay on OVCAR-3 ovarian, with SF-268 CNS and in the assay on A498 renal was above 100 µM each time.
Take `COc1ccc(CC2NCCc3c2[nH]c2ccccc32)cc1` (stereo not drawn): the TGI in the assay with OVCAR-4 ovarian, in the assay on A549 NSCLC, with HCT-15 colon, with KM12 colon, in the assay with NCI-H226 lung and in the assay with SN12C renal was above 100 µM each time. Moreover, the TGI in the assay on SW-620 colon, in the assay on OVCAR-3 ovarian, in the assay on SF-268 CNS and in the assay with A498 renal was above 100 µM each time.
Take `COc1cc2c(cc1OCCCNC(=O)c1cccc3c(=O)c4ccccc4[nH]c13)N=C[C@@H]1CCCN1C2=O`: the GI50 in the assay with OVCAR-4 ovarian is below 0.01 µM; with A549 NSCLC it was 0.0202 µM; in the assay on HCT-15 colon it was 0.114 µM; in the assay with NCI-H226 lung, below 0.01 µM; in the assay on SN12C renal it was below 0.01 µM; in the assay on SW-620 colon it was below 0.01 µM. Moreover, the GI50 with SF-268 CNS was below 0.0216 µM; with A498 renal it was below 0.01 µM. The TGI in the assay with OVCAR-4 ovarian is 10.8 µM; in the assay on A549 NSCLC it was above 100 µM; in the assay on HCT-15 colon, above 100 µM; with KM12 colon it was 13.2 µM; in the assay with NCI-H226 lung, below 0.01 µM; in the assay on SN12C renal, below 0.0126 µM. For the same molecule, the TGI with SW-620 colon is 23.6 µM; in the assay with OVCAR-3 ovarian it was 6.64 µM; with SF-268 CNS, 2.07 µM; with A498 renal, 0.0225 µM.

The values above are taken from PubChem BioAssay (NCI).
